Legend:
[1] = PlasmaLyte A stability study; type: physicochemical; conditions: room temperature; for % remaining: 10 mg/mL in PlasmaLyte A and milli-Q water (50:50)
Experimental: LC-MS Method 1. Quantitative determination of the amount of a disclosed compound present in blood, plasma, or urinary can be determined by LC-MS/MS methods. Briefly, a suitable method involves use of calibrants (0.976, 1.95, 3.91, 7.81, 15.63, 31.25, 62.5, 125, 250, 500, 1000 ng/mL) were in sample matrix (e.g., rat plasma, blood or urine). A separate solution of disclosed compound (independent of calibrants) is used to prepare quality controls. Appropriate volumes of working solutions are added to the sample matrix to yield the final concentrations of 1, 50, 1000 ng/mL. Linearity for calibrants in duplicate is assessed by subjecting the spiked concentrations and the respective peak areas to least-square linear regression analysis with and without intercepts, and a weighted least-square regression (1/x or 1/x^2). The lowest limit of quantitation (LLOQ) in the standard curve measured with acceptable accuracy and precision for a disclosed compound from rat plasma has been previously established as 0.976 ng/mL for a representative compound, 1810. All samples are precipitated by the addition of 4-volumes (100 μL) of IS, 1369 (10 ng/mL) in methanol to a volume (25 μL) of plasma/urine test sample. The samples are vortexed (Fisher scientific, USA) for 30 sec and centrifuged at 10,000×g for 10 min at 4° C. and the supernatants are collected for LC-MS/MS analysis. Chromatographic separation is carried out using a Shimadzu Nexera XR (LC-20ADXR) liquid chromatograph (Shimadzu Corporation, USA) consisting of two pumps, online degasser, system controller and an auto sampler. Mobile phase consisting of a) water with 1.6% nonafluoropentanoic acid and 0.7% formic acid b) 90% acetonitrile with 0.8% nonafluoropentanoic acid and 0.35% formic acid can be used at a flow rate of 0.5 rnLirnin in gradient mode. A Waters® Symmetry ® 3.5μ C8, 50×2.1 mm column (Waters, Milford, Mass.) is used for the separation. Samples (5 μL) are injected on column and the eluate is provided directly to an API 5500 triple quadruple mass spectrometer (Applied Biosystems, Foster City, Calif.) equipped with a turbospray ion source operated in the positive ion mode. The optimized multiple reactions monitoring (MRM) conditions for 3408 (549.2A207.1), 1810 (469.2^207.1) and IS (418.3^207.1) are monitored with a declustering potential of 45 V and collision energy of 25 eV. Data are acquired and processed with Analyst software version 1.6.2 (Applied Biosystems, Foster City, Calif.).
Stability of compound 3408 was determined in a mixture of PlasmaLyte A and milli-Q water (50:50) at room temperature. Briefly, a 10 mg/mL solution of compound 3408 was prepared in triplicate and samples were collected (0, 1, 2, 3, 4, 5, 6 h). These samples were processed by addition of 4-volumes of methanol and quantitated by LC-MS/MS method disclosed herein in LC-MS Method 1. The percentage drug remaining at each hour was calculated with respect to the concetration at the initial time point.

[2] = Metabolic stability, human liver microsomal degradation; type: in vitro ADME; conditions: human liver microsomes; read-out: Metabolic Stability (Human) t½ (converted)
Experimental: (§1) LC-MS Method 2. Chromatographic separation was performed on an Acquity UPLC BEH C18 1.7 μm, 2.1×50 mm column (Waters Corporation, Milford, Mass.) or a Luna Omega 1.6 μm C18, 2.1×50 mm column (Phenomenex, Torrance, Calif.) using an Acquity ultra performance liquid chromatography system. Data were acquired using Masslynx v. 4.1 and analyzed using the Openlynx software suite. This was coupled to an Acquity photodiode array detector, which acquired UV data from 210-400 nm. The flow was then split, with half directed to an evaporative light scattering detector (ELSD) and half to an SQ mass spectrometer. The total flow rate was 1 mL/min. The sample injection volume was 10 μL. The UPLC column was maintained at 60° C. and the gradient program with either basic mobile phase (A1, 10 mM ammonium bicarbonate in MilliQ H2O; B1, 0.1% formic acid in acetonitrile) or formic mobile phase (A1, 0.1% formic acid in MilliQ H2O; B1, 0.1% formic acid in acetonitrile) based on the compounds' physical and chemical properties. The mass spectrometer was operated in positive-ion mode with electrospray ionization. The conditions were as follows; capillary voltage 3.4 kV, cone voltage 30 V, source temperature 130° C., desolvation temperature 400° C., desolvation gas 800 L/hr, cone gas 100 L/hr. A full scan range from m/z=110-1000 in 0.2 s was used to acquire MS data. The ELSD-drift tube temperature was set at 52° C.
The stability of compounds to human liver microsomal degradation, i.e., metabolic stability, was determined as described previously (see North, E. J., et al, Bioorg. Med. Chem. (2013) 21(9):2587-2599) and the rate of degradation was monitored by LC-MS analysis using multiple sampled time points as described herein above in LC-MS Method 2. Metabolic stability was evaluated via the half-life from least squares fit of the concentration remaining at the time points based on first-order kinetics.

in vitro = in vitro ADME; conditions: human plasma, 37° C., read-out: Plasma Stability (Human) t½ (converted)
Experimental: as §1
Plasma stability was determined after incubation in human plasma for various incubation time, i.e., incubation times of 0, 3, 24, and 48 hour were used. DMSO stock solutions of test compounds were prepared at 10 mM concentration. 1.8 μL of each test compound was each added directly to 1.8 mL of human plasma to get the final concentration of 10 μM. This compound/matrix was mixed and 70 μL was transferred to 4 time points plates (each in triplicate wells). […] The plasma stability was evaluated via the half-life from least-squares fit of the multiple time points based on first-order kinetics.

[3] = test system: M. tuberculosis Erdman (TMCC107); experiment: Murine model of acute TB infection; type: in vivo; conditions: BALB/c mice, subcutaneous injection 400 mg/kg daily, 12 consecutive days
M. tuberculosis H37Rv = experiment: Minimum inhibitory concentration (MIC), microbroth dilution; type: cell-based; conditions: Mycobacterium tuberculosis, H37RV, 168 h, read-out: MIC (H37Rv)

CN[C@@H]1[C@H](O)[C@H](NC)[C@H]2O[C@]3(O)[C@H](O[C@@H]2[C@H]1O)O[C@H](C)C[C@H]3NC(=O)Cc1ccc(OP(=O)(O)O)cn1 [Compound 3408, 6-(2-oxo-2-(((2R,4R,4a5,5aR,6S,7S,8R,9S,9aR,10aS)-4a,7,9-trihydroxy-2-methyl-6,8-bis(methylamino)decahydro-2H-benzo[b]pyrano[2,3-e][1,4]dioxin-4-yl)amino)ethyl)pyridin-3-yl dihydrogen phosphate]
% remaining ([1]; hour 0): 100%
% remaining ([1]; hour 1): 103%
% remaining ([1]; hour 2): 101%
% remaining ([1]; hour 3): 105%
% remaining ([1]; hour 4): 104%
% remaining ([1]; hour 5): 104%
% remaining ([1]; hour 6): 104%
time stable in solution ([1]; 10 mg/mL in Plasmalyte A and milli-Q water mixture (50:50)): at least 6 hours
half-life [2]: < 5 min
half-life at 10 µM (in vitro): < 5 min
Efficacy in mouse model of acute tuberculosis infection (lung CFU, FIG. 1) [3]: similarly active
MIC (M. tuberculosis H37Rv): 100 µg/mL

From patent US20210388012A1, “METHODS AND COMPOSITIONS FOR PRODRUG FORMS OF SPECTINOMYCIN AND SPECTINAMIDE ANALOGS” (priority 2018, published 2021)
